The target in this test is T1, CCR3 (UniProt P51677).
T1 sequence (P51677 1-355): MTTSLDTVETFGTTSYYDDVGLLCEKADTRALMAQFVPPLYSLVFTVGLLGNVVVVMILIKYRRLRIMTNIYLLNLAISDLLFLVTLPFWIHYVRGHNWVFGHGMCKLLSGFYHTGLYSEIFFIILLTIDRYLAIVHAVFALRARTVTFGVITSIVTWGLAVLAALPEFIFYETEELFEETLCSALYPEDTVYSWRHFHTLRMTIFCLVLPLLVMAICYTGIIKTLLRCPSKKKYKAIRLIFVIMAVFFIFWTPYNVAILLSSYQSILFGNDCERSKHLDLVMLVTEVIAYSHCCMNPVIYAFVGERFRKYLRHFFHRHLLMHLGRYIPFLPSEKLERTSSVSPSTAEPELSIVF
Briefly: CCR3 Receptor Binding Assay ([125I]-labeled human eotaxin/CCL11 displacement on cells). The conditions noted are these: 0.1 nM [125I]-labeled human eotaxin/CCL11, 60 min at room temperature, 2×10^5 cells/well. On the procedure:
Cells were washed once with PBS and resuspended in a binding buffer (25 mM HEPES pH 7.6, 5 mM MgCl2, 1 mM CaCl2, 0.5% BSA, 0.1% NaN3). […] of cell suspension (2×10^5 cells/well) and 0.1 nM [^125I]-labeled human eotaxin/CCL11 (2000 Ci/mmol specific activity) were mixed in a 96-well U-bottom polypropylene plate, and incubated for 60 min at room temperature for the binding reaction. The cell suspension was then transferred to a filtration plate (#MAFB, Millipore), and washed 3 times with the binding buffer containing 0.5 M NaCl, scintillant added, and the radioactivity was counted on a TopCount (Packard). For the determination of non-specific binding, the cell suspension and [^125I]-labeled human eotaxin/CCL11 were incubated in the presence of 500 nM of unlabeled human eotaxin/CCL11. See, Iino et al., “Molecular cloning and functional characterization of cynomolgus monkey (Macaca fascicularis) CC chemokine receptor, CCR3,” Cytokine 2002, 19, 276-286.
Biological results are summarized in Table 1, wherein A represents a value no greater than 50 nM, and B represents a value greater than 50 nM but no greater than 500 nM, C represents a value greater than 500 nM but no greater than 5 μM, and D represents a value greater than 5 μM.

Molecule `N#Cc1ccc(Sc2cc(C(F)(F)F)cc(C(F)(F)F)c2)c(S(=O)(=O)N2CCOCC2)c1` [Compound 18] registered an inhibition constant Ki of 500 to 5000 nM.
Next, `N#Cc1ccc(Sc2cc(Cl)cc(Cl)c2)c(S(=O)(=O)N2CCC(F)CC2)c1` [Compound 7]: ≤ 50 nM; `Cc1cc(C)cc(Sc2ccc(C#N)cc2S(=O)(=O)N2CCNC(=O)C2)c1` [Compound 10]: ≤ 50 nM; `Cc1cc(C)cc(Sc2ccc(C#N)cc2S(=O)(=O)N2CCS(=O)(=O)CC2)c1` [Compound 17]: ≤ 50 nM.
Take `N#Cc1ccc(Sc2cc(C(F)(F)F)cc(C(F)(F)F)c2)c(S(=O)(=O)N2CCS(=O)(=O)CC2)c1` [Compound 20]: the Ki is > 5000 nM.
`N#Cc1ccc(Sc2cc(Cl)cc(Cl)c2)c(S(=O)(=O)N2CCSCC2)c1` [Compound 21]: the Ki was in the range of 50 to 500 nM.
Next, `Cc1cc(C)cc(Sc2ccc(C#N)cc2S(=O)(=O)N2CCC(C)CC2)c1` [Compound 5]: > 5000 nM; `CC1CN(S(=O)(=O)c2cc(C#N)ccc2Sc2cc(Cl)cc(Cl)c2)CC(C)N1` (stereo not drawn) [Compound 29]: ≤ 50 nM.
Take `Cc1cc(C)cc(Sc2ccc([N+](=O)[O-])cc2S(=O)(=O)N2CCSCC2)c1` [Compound 25]: the Ki was > 5000 nM.
Next, `N#Cc1ccc(S(=O)(=O)c2cc(Cl)cc(Cl)c2)c(S(=O)(=O)N2CCCCC2)c1` [Compound 3]: > 5000 nM.
In the case of `O=[N+]([O-])c1ccc(Sc2cc(Cl)cc(Cl)c2)c(S(=O)(=O)N2CCSCC2)c1` [Compound 24], the Ki was > 5000 nM.
For the molecule `N#Cc1ccc(Sc2cc(Cl)cc(Cl)c2)c(S(=O)(=O)N2CCNC(=O)C2)c1` [Compound 9], the inhibitory constant (Ki) was ≤ 50 nM.
The value for `N#Cc1ccc(Sc2cc(Cl)cc(Cl)c2)c(S(=O)(=O)N2CCS(=O)(=O)CC2)c1` [Compound 23] was ≤ 50 nM.
The value for `CC1CCN(S(=O)(=O)c2cc(C#N)ccc2Sc2cc(Cl)cc(Cl)c2)CC1` [Compound 6] was > 5000 nM.
Consider `COC(=O)C1CN(S(=O)(=O)c2cc(C#N)ccc2Sc2cc(Cl)cc(Cl)c2)CCN1` (stereo not drawn) [Compound 32], for which the Ki is ≤ 50 nM.
The value for `Cc1cc(C)cc(Sc2ccc(C#N)cc2S(=O)(=O)N2CCCCC2)c1` [Compound 4] was ≤ 50 nM; that for `CC1CN(S(=O)(=O)c2cc(C#N)ccc2Sc2cc(Cl)cc(Cl)c2)CCN1` (stereo not drawn) [Compound 27] was ≤ 50 nM; that for `N#Cc1ccc(Sc2cc(Cl)cc(Cl)c2)c(S(=O)(=O)N2CCNC(=O)C2)c1` [Compound 11] was ≤ 50 nM.
The value for `N#Cc1ccc(Sc2cc(C(F)(F)F)cc(C(F)(F)F)c2)c(S(=O)(=O)N2CCSCC2)c1` [Compound 19] was > 5000 nM; that for `N#Cc1ccc(Sc2cc(Cl)cc(Cl)c2)c(S(=O)(=O)N2CCS(=O)(=O)CC2)c1` [Compound 14] was ≤ 50 nM; that for `N#Cc1ccc(Sc2cc(Cl)cc(Cl)c2)c(S(=O)(=O)N2CCSCC2)c1` [Compound 13] was ≤ 50 nM.
`N#Cc1ccc(Sc2cc(Cl)cc(Cl)c2)c(S(=O)(=O)N2CCCCC2)c1` [Compound 1] displayed an inhibitory constant (Ki) of 50 to 500 nM.
The value for `N#Cc1ccc([S+]([O-])c2cc(Cl)cc(Cl)c2)c(S(=O)(=O)N2CCCCC2)c1` (stereo not drawn) [Compound 2] was > 5000 nM; that for `Cc1cc(C)cc(Sc2ccc(C#N)cc2S(=O)(=O)N2CCSCC2)c1` [Compound 16] was > 5000 nM; that for `CC1CC(C)CN(S(=O)(=O)c2cc(C#N)ccc2Sc2cc(Cl)cc(Cl)c2)C1` (stereo not drawn) [Compound 8] was > 5000 nM.
Next, `Cc1cc(C)cc(Sc2ccc(C#N)cc2S(=O)(=O)N2CCS(=O)(=O)CC2)c1` [Compound 26]: > 5000 nM; `CC(C)N1CCN(S(=O)(=O)c2cc(C#N)ccc2Sc2cc(Cl)cc(Cl)c2)CC1=O` [Compound 31]: ≤ 50 nM.
`N#Cc1ccc(Sc2cc(Cl)cc(Cl)c2)c(S(=O)(=O)N2CCOCC2)c1` [Compound 12]: the inhibition constant (Ki) is ≤ 50 nM.
In the case of `O=[N+]([O-])c1ccc(Sc2cc(Cl)cc(Cl)c2)c(S(=O)(=O)N2CCS(=O)(=O)CC2)c1` [Compound 30], the Ki was ≤ 50 nM.
The value for `CC1CN(S(=O)(=O)c2cc(C#N)ccc2Sc2cc(Cl)cc(Cl)c2)CC(C)N1` (stereo not drawn) [Compound 28] was ≤ 50 nM.

By Ki is commonly meant a dissociation constant, usually derived from enzyme kinetics or from competition with a known ligand. Read a low Ki as a stronger hold on the target.

The values are drawn from US9187425B2, “2,5-disubstituted arylsulfonamide CCR3 antagonists” (Axikin Pharmaceuticals, Inc., priority 2009, dated 2015).
